Test system: TK6
Test: relative viability (MTT, 20-24 h post-exposure) vs solvent control; higher = less cytotoxic
Conditions: exposure time: 4 h (S9 compounds: 3 h + 4 h recovery)
Procedure: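 Human TK6 lymphoblastoid cells were exposed for 4 h to three concentrations of each compound at four ring-trial labs. Compounds P, Q, R and CC were given for 3 h with rat liver S9 plus 4 h recovery. Relative survival was measured by MTT assay 20-24 h after exposure, as % viability relative to solvent control (mean with SD), in the Result 1 round with preselected concentrations.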

O=[N+]([O-])c1ccc(O)c([N+](=O)[O-])c1 [2,4-Dinitrophenol]
relative viability [%]
Conditions	batch: 3, lab: Lab 1	batch: 3, lab: Lab 2	batch: 3, lab: Lab 3	batch: 3, lab: Lab 4
concentration: 0.11mM	92.2	98.2	71.1	97.7
concentration: 0.33mM	84.7	85	67.4	98.6
concentration: 1mM	58.6	37.2	63.9	99.4

Nc1ccc2cc3ccccc3cc2c1 [2-Aminoanthracene]
relative viability [%]
Conditions	batch: 4, lab: Lab 1	batch: 4, lab: Lab 2	batch: 4, lab: Lab 3	batch: 4, lab: Lab 4
concentration: 0.22ug/mL	95.8	97.3	102	96.3
concentration: 0.67ug/mL	94.8	87.8	95.5	93.5
concentration: 2ug/mL	47	16.8	23.1	9.75

CC1(C)S[C@@H]2[C@H](NC(=O)[C@H](N)c3ccccc3)C(=O)N2[C@H]1C(=O)O [Ampicillin]
relative viability [%]
Conditions	batch: 1, lab: Lab 1	batch: 1, lab: Lab 2	batch: 1, lab: Lab 3	batch: 1, lab: Lab 4
concentration: 0.11mM	102	104	115	127
concentration: 0.33mM	94.9	115	123	126
concentration: 1mM	99.9	98.3	121	112

c1ccc2c(c1)cc1ccc3cccc4ccc2c1c34 [Benzo[a]pyrene]
concentration: 10ug/mL
Conditions	relative viability [%]
batch: 4, lab: Lab 1	67.8
batch: 4, lab: Lab 2	35.7
batch: 4, lab: Lab 3	66.3
batch: 4, lab: Lab 4	75

Cc1c(N)nc(C(CC(N)=O)NCC(N)C(N)=O)nc1C(=O)NC(C(=O)NC(C)C(O)C(C)C(=O)NC(C(=O)NCCc1nc(-c2nc(C(=O)NCCC[S+](C)C)cs2)cs1)C(C)O)C(O[C@@H]1O[C@@H](CO)[C@@H](O)[C@H](O)[C@@H]1O[C@H]1O[C@H](CO)[C@@H](O)[C@H](OC(N)=O)[C@@H]1O)c1cnc[nH]1.O=S(=O)([O-])O (some centres undefined) [Bleomycin (sulfate)]
Conditions	relative viability [%]
concentration: 5ug/mL, batch: 2, lab: Lab 1	80.5
concentration: 5ug/mL, batch: 2, lab: Lab 2	53.4
concentration: 5ug/mL, batch: 2, lab: Lab 3	51
concentration: 5ug/mL, batch: 2, lab: Lab 4	56.4
concentration: 5ug/mL, batch: 3, lab: Lab 1	78
concentration: 5ug/mL, batch: 3, lab: Lab 2	66
concentration: 5ug/mL, batch: 3, lab: Lab 3	49.7
concentration: 5ug/mL, batch: 3, lab: Lab 4	54.6
concentration: 10ug/mL, batch: 1, lab: Lab 1	41.8
concentration: 10ug/mL, batch: 1, lab: Lab 2	59.6
concentration: 10ug/mL, batch: 1, lab: Lab 3	53
concentration: 10ug/mL, batch: 1, lab: Lab 4	50.6

Cn1c(=O)c2c(ncn2C)n(C)c1=O [Caffeine]
concentration: 2mM
Conditions	relative viability [%]
batch: 1, lab: Lab 1	94.7
batch: 1, lab: Lab 2	86.4
batch: 1, lab: Lab 3	108
batch: 1, lab: Lab 4	98.2
batch: 2, lab: Lab 1	96.7
batch: 2, lab: Lab 2	80.1
batch: 2, lab: Lab 3	88.9
batch: 2, lab: Lab 4	100
batch: 3, lab: Lab 1	96.4
batch: 3, lab: Lab 2	92.5
batch: 3, lab: Lab 3	107
batch: 3, lab: Lab 4	92.6

O=C(O)CCCc1ccc(N(CCCl)CCCl)cc1 [Chlorambucil]
relative viability [%]
Conditions	batch: 3, lab: Lab 1	batch: 3, lab: Lab 2	batch: 3, lab: Lab 3	batch: 3, lab: Lab 4
concentration: 0.44uM	95.2	84.9	80.8	97.2
concentration: 1.33uM	89.6	95.9	74.1	92.3
concentration: 4uM	78.9	71.7	67.2	75.3

C[C@@H]1C[C@@H]([C@H](O)CC2CC(=O)NC(=O)C2)C(=O)[C@@H](C)C1 [Cycloheximide]
relative viability [%]
Conditions	batch: 1, lab: Lab 1	batch: 1, lab: Lab 2	batch: 1, lab: Lab 3	batch: 1, lab: Lab 4
concentration: 1.11uM	89.7	85.7	94.1	86.8
concentration: 3.33uM	64	65.6	72.2	69.7
concentration: 10uM	49.4	46.1	41.3	57.4

O.O=P1(N(CCCl)CCCl)NCCCO1 (centres undefined) [Cyclophosphamide]
relative viability [%]
Conditions	batch: 4, lab: Lab 1	batch: 4, lab: Lab 2	batch: 4, lab: Lab 3	batch: 4, lab: Lab 4
concentration: 2.22uM	103	94.2	157	80.3
concentration: 6.67uM	96.49	69	107	81.7
concentration: 20uM	90.45	47.2	73.4	58.4

OC[C@@H](O)[C@@H](O)[C@H](O)[C@H](O)CO [D-Mannitol]
relative viability [%]
Conditions	batch: 1, lab: Lab 1	batch: 1, lab: Lab 2	batch: 1, lab: Lab 3	batch: 1, lab: Lab 4
concentration: 0.11mM	90	97	145	110
concentration: 0.33mM	98.7	104	137	107
concentration: 1mM	103	104	139.3	107

C[C@@H]1C[C@H]2[C@@H]3CCC4=CC(=O)C=C[C@]4(C)[C@@]3(F)[C@@H](O)C[C@]2(C)[C@@]1(O)C(=O)CO [Dexamethasone]
relative viability [%]
Conditions	batch: 3, lab: Lab 1	batch: 3, lab: Lab 2	batch: 3, lab: Lab 3	batch: 3, lab: Lab 4
concentration: 0.11mM	105	103	127	112
concentration: 0.33mM	101	97.9	142	111
concentration: 1mM	86.6	86.4	143	92.2

CCOS(C)(=O)=O [EMS (Ethyl methanesulfonate)]
relative viability [%]
Conditions	batch: 2, lab: Lab 1	batch: 2, lab: Lab 2	batch: 2, lab: Lab 3	batch: 2, lab: Lab 4
concentration: 0.22mM	95.4	105	98.2	103
concentration: 0.67mM	91.7	98.1	96.6	92.6
concentration: 2mM	85.2	84.6	67.7	80.4

CCN(N=O)C(N)=O [ENU (N-Nitroso-N-ethylurea)]
relative viability [%]
Conditions	batch: 2, lab: Lab 1	batch: 2, lab: Lab 2	batch: 2, lab: Lab 3	batch: 2, lab: Lab 4
concentration: 0.056mM	97.9	87.58	99.1	101
concentration: 0.167mM	92.2	104	93.5	89.3
concentration: 0.5mM	70.5	95.6	69.3	76.1

CCC1(c2ccccc2)C(=O)N=C([O-])NC1=O.[Na+] (centres undefined) [Phenobarbital sodium]
relative viability [%]
Conditions	batch: 4, lab: Lab 1	batch: 4, lab: Lab 2	batch: 4, lab: Lab 3	batch: 4, lab: Lab 4
concentration: 0.11mM	98.3	85.5	149	95.2
concentration: 0.33mM	95.6	84.2	119	96.8
concentration: 1mM	95.7	82.3	116	99.5

CN[C@@H]1C[C@H]2O[C@@](C)([C@@H]1OC)n1c3ccccc3c3c4c(c5c6ccccc6n2c5c31)C(=O)NC4 [Staurosporine]
relative viability [%]
Conditions	batch: 3, lab: Lab 1	batch: 3, lab: Lab 2	batch: 3, lab: Lab 3	batch: 3, lab: Lab 4
concentration: 3nm	104	114	130	97.4
concentration: 10nm	103	99.1	111	91.4
concentration: 30nm	97	69.7	69.7	73.9

CCN(CC)CCNC(=O)c1c(C)[nH]c(/C=C2\C(=O)Nc3ccc(F)cc32)c1C.O=C(O)C[C@H](O)C(=O)O [Sunitinib malate]
relative viability [%]
Conditions	batch: 2, lab: Lab 1	batch: 2, lab: Lab 2	batch: 2, lab: Lab 3	batch: 2, lab: Lab 4
concentration: 2.22uM	103	77.8	91.3	99.4
concentration: 6.67uM	90.4	64.7	69	86.4
concentration: 20uM	64.6	28.5	37	40.8
